According to EP0180850A2, “Antimycotic azolyl-methyl-cyclopropyl-carbinol derivatives” (BAYER AG, priority 1984, dated 1986):

Experiments:
Candida-Zellen = test: Antimycotic in-vivo activity (oral) in mouse candidosis; parameters: species or system Mäuse vom Typ SPF-CF1; conditions: mice infected i.v. with 1-2 x 10^6 Candida cells; oral 10 to 100 mg/kg one hour before and seven hours after infection; survival on day 6 p.i.
Protocol: Versuchsbeschreibung: • Mäuse vom Typ SPF-CF1 wurden intravenös mit-1-2 x 10^6 logarithmisch wachsenden Candida-Zellen, die in physiologischer Kochsalzlösung suspendiert werden, infiziert. Eine Stunde vor und sieben Stunden nach der Infektion werden die Tiere mit jeweils 10 bis 100 mg/kg Körpergewicht der Präparate oral behandelt.
Unbehandelte Tiere starben am 3. bis 6. Tag post infektionem. Die Überlebensrate am 6. Tag post infektionem betrug bei unbehandelten Kontrolltieren etwa 5 %.

[1] = system: Dermatophyten, Schimmelpilze, Hefen; test: Antimycotic in-vitro activity, serial dilution test, overall comparison with prior-art compounds; format: cell-based; conditions: compared in words with known compounds (A), (B) and (C)
Protocol: Versuchsbeschreibung: • Die in-vitro-Prüfungen wurden im Reihenverdünnungstest mit Keiminokula von durchschnittlich 5 x 10^3 bis 10^4 Keimen/ml Substrat durchgeführt. Als Nährmedium dienten • a) für Dermatophyten und Schimmelpilze: Sabourand's milieu d'epreuve • b) für Hefen: • Fleischextrakt-Traubenzucker-Bouillon.
Die Bebrütungstemperatur betrug 28 bis 37°C, die Bebrütungsdauer lag bei 24 bis 96 Stunden bei Hefen und 96 Stunden bei Dermatophyten und Schimmelpilzen.

Structure (SMILES)	Wirkung (Candida-Zellen)	antimykotische Wirkung [1]
CCSC1(C(O)(Cn2cncn2)c2ccc(Cl)cc2)CC1 (stereo not shown) [I-1, 1-(4-Chlorphenyl)-1-[1-(ethylthio)-1-cyclopropyl]-2-(1,2,4-triazol-1-yl)-1-ethanol]	+++++ (= sehr gute Wirkung = 90 % Überlebende am 6. Tag p.i.)	bessere antimykotische Wirkung
OC(Cn1cncn1)(c1ccccc1)C1(Oc2ccc(Cl)cc2)CC1 (stereo not shown) [I-2]	+++++ (= sehr gute Wirkung = 90 % Überlebende am 6. Tag p.i.)	bessere antimykotische Wirkung
CC[S+]([O-])C1(C(O)(Cn2cncn2)c2ccc(Cl)cc2)CC1 (stereo not shown) [I-3, 1-(4-Chlorphenyl)-1-[1-(ethylsulfinyl)-1-cyclopropyl]-2-(1,2,4-triazol-1-yl)-1-ethanol]	+++++ (= sehr gute Wirkung = 90 % Überlebende am 6. Tag p.i.)	bessere antimykotische Wirkung
CCS(=O)(=O)C1(C(O)(Cn2cncn2)c2ccc(Cl)cc2)CC1 (stereo not shown) [I-4]	+++ (= Wirkung = 60 % Überlebende am 6. Tag p.i.)	bessere antimykotische Wirkung
OC(Cn1cncn1)(c1ccc(Cl)cc1)C1(Oc2ccccc2)CC1 (stereo not shown) [I-5]	+++++ (= sehr gute Wirkung = 90 % Überlebende am 6. Tag p.i.)	bessere antimykotische Wirkung
CCCCSC1(C(O)(Cn2cncn2)c2ccc(Cl)cc2)CC1 (stereo not shown) [I-6]	++++ (= gute Wirkung = 80 % Überlebende am 6. Tag p.i.)	bessere antimykotische Wirkung
CCCCS(=O)(=O)C1(C(O)(Cn2cncn2)c2ccc(Cl)cc2)CC1 (stereo not shown) [I-7]	+++++ (= sehr gute Wirkung = 90 % Überlebende am 6. Tag p.i.)	bessere antimykotische Wirkung
OC(Cn1cncn1)(c1ccc(Cl)cc1)C1(Sc2ccc(Cl)cc2)CC1 (stereo not shown) [I-11]		bessere antimykotische Wirkung
OC(Cn1cncn1)(c1ccc(Cl)cc1)C1(SCc2ccc(Cl)cc2)CC1 (stereo not shown) [I-13]	+++++ (= sehr gute Wirkung = 90 % Überlebende am 6. Tag p.i.)	
